{"source": "patent US20210267977A1", "about": "“C[…] AFTER 5HT2A AGONISTS ADMINISTRATION” (Universitätsspital Basel, priority 2020, published 2021)", "key": {"healthy subjects [1]": {"system": "healthy subjects", "assay": "Example 3 clinical study: subjective drug effects (VAS, 5D-ASC), ketanserin or placebo 1 hour after LSD", "details": "for duration of action of LSD: three subjects", "method": "(§1) Study design: The study used a double-blind, placebo-controlled, random-order 2-period cross-over design with 2 treatment conditions: 1) 100 μg LSD+ketanserin (40 mg) and 2) 100 μg LSD+placebo. Ketanserin or placebo was administered 1 hour after LSD. The washout periods between sessions were at least 10 days. The study was registered at ClinicalTrials.gov (NCT04558294).\n(§2) Participants: Healthy subjects (men and women) were recruited. Participants who were younger than 25 years old were excluded from participating in the study. Additional exclusion criteria were age >65 years, pregnancy (urine pregnancy test at screening and before each test session), personal or family (first-degree relative) history of major psychiatric disorders (assessed by the Semi-structured Clinical Interview for Diagnostic and Statistical Manual of Mental Disorders, 4th edition, Axis I disorders by a trained psychiatrist), the use of medications that may interfere with the study medications (e.g. antidepressants, antipsychotics, sedatives), chronic or acute physical illness (abnormal physical exam, electrocardiogram, or hematological and chemical blood analyses), tobacco smoking (>10 cigarettes/day), lifetime prevalence of illicit drug use >10 times (except for Δ^9-tetrahydrocannabinol), illicit drug use within the last 2 months, and illicit drug use during the study (determined by urine drug tests).\n(§3) Study drugs: LSD (D-lysergic acid diethylamide base, high-performance liquid chromatography purity >99%; Lipomed AG, Arlesheim, Switzerland) was administered as an oral solution in units containing 100 μg LSD in 1 mL of 96% ethanol (Holze et al., 2019). Ketanserin was obtained as the marketed drug (KETENSIN® (Janssen)) and encapsulated with opaque capsules to ensure blinding. Ketanserin placebo consisted of identical opaque capsules filled with mannitol.\n(§4) Study procedures: The study included a screening visit, two 13 hour test sessions (7:00 AM-8:00 PM), and an end-of-study visit. LSD was administered at 8:00 AM. Ketanserin (40 mg) or placebo was administered at 9:00 AM. The outcome measures were repeatedly assessed for 12 hours after LSD administration.\nSubjective drug effects: Subjective effects were assessed repeatedly using visual analog scales (VASs) 0, 0.5, 1, 1.5, 2, 2.5, 3, 3.5, 4, 5, 6, 7, 8, 9, 10, 11, and 12 hours after LSD administration. The VASs were presented as 100-mm horizontal lines (0-100%), marked from “not at all” on the left to “extremely” on the right. The 5D-ASC scale (Dittrich, 1998; Studerus et al., 2010) was administered 12 hours after LSD administration to retrospectively rate alterations in waking consciousness induced by the drugs. Autonomic, adverse, and endocrine effects: Blood pressure, heart rate, and tympanic body temperature were repeatedly measured 1 hour before and 0, 0.5, 1, 1.5, 2.5, 3, 3.5, 4, 5, 6, 7, 8, 9, 10, 11, and 12 hours after LSD administration as previously described in detail (Hysek et al., 2010). Adverse effects were systematically assessed up to 12 hours after drug administration using the 66-item List of Complaints (Zerssen, 1976)."}, "healthy subjects [2]": {"system": "healthy subjects", "assay": "Example 3 clinical study: cardiovascular and adverse effects (List of Complaints)", "details": "for total of reported complaints on the LC list (mean±SEM): up to 12 hours after LSD", "method": "as §1, §2, §3, §4\nSubjective drug effects: Subjective effects were assessed repeatedly using visual analog scales (VASs) 0, 0.5, 1, 1.5, 2, 2.5, 3, 3.5, 4, 5, 6, 7, 8, 9, 10, 11, and 12 hours after LSD administration. […] Autonomic, adverse, and endocrine effects: Blood pressure, heart rate, and tympanic body temperature were repeatedly measured 1 hour before and 0, 0.5, 1, 1.5, 2.5, 3, 3.5, 4, 5, 6, 7, 8, 9, 10, 11, and 12 hours after LSD administration as previously described in detail (Hysek et al., 2010). Adverse effects were systematically assessed up to 12 hours after drug administration using the 66-item List of Complaints (Zerssen, 1976)."}, "humans": {"system": "humans", "details": "cited from earlier work"}, "healthy subjects [3]": {"system": "healthy subjects", "assay": "Example 2 clinical study: subjective drug effects (VAS, AMRS, 5D-ASC, MEQ), ketanserin before LSD", "format": "in vivo, human", "details": "16 subjects", "method": "The study was registered at ClinicalTrials.gov (NCT03321136).\n100 μg LSD/100 μg LSD). […] Placebo consisted of identical opaque capsules filled with mannitol.\nLSD or placebo was administered at 9:00 AM. The outcome measures were repeatedly assessed for 24 hours.\nThe VASs for “concentration”, and “perception of time” were bidirectional (±50%). Marked from “not at all” on the left (−50), to “normal” in the middle (0), to “extremely” on the right (+50) for concentration and “slowed” (−50) and “racing” (+50) for “perception of time”. […] Mystical experiences were assessed using the German version (Liechti et al., 2017) of the 100-item States of Consciousness Questionnaire (SOCQ) (Griffiths et al., 2006) that includes the 43-item and newer 30-item MEQ (MEQ43 (Griffiths et al., 2006) and MEQ30 (Barrett et al., 2015)). The 60-item Adjective Mood Rating Scale (AMRS) (Janke & Debus, 1978) was administered 1 hour before and 3, 6, 9, 12, and 24 hours after drug administration.\nThe criterion for significance was p<0.05."}, "healthy subjects [4]": {"system": "healthy subjects", "assay": "Example 2 clinical study: autonomic and adverse effects (blood pressure, heart rate, body temperature, List of Complaints)", "details": "ketanserin 40 mg before 200 μg LSD", "text": "The washout periods between sessions were at least 10 days. The study was registered at ClinicalTrials.gov (NCT03321136).\nas §2, with “Participants” for “Participants: Healthy subjects (men and women) were recruited. Participants”, “tests). […]” for “tests).”\nKetanserin (40 mg) or placebo was administered at 8:00 AM. […] The outcome measures were repeatedly assessed for 24 hours.\nAutonomic, adverse, and endocrine effects: Blood pressure, heart rate, and tympanic body temperature were repeatedly measured 1 hour before and 0, 0.5, 1, 1.5, 2.5, 3, 4, 5, 6, 7, 8, 9, 10, 11, 12, 14, 16, and 24 hours after drug administration as previously described in detail (Hysek et al., 2010). Adverse effects were systematically assessed 1 hour before and 12 and 24 hours after drug administration using the 66-item List of Complaints (Zerssen, 1976).\nData analysis: Peak (Emax and/or Emin) or peak change from baseline (ΔEmax) values were determined for repeated measures. The values were then analyzed using repeated-measures analysis of variance (ANOVA), with drug as within-subjects factor, followed by Tukey post hoc comparisons using Statistica 12 software (StatSoft, Tulsa, Okla., USA). […]"}, "[5]": {"assay": "Example 2 clinical study: plasma LSD pharmacokinetics", "details": "ketanserin 40 mg before 200 μg LSD, one-compartment model", "method": "The blood samples were immediately centrifuged, and the plasma was subsequently stored at −80° C. until analysis."}, "5HT2A receptor": {"biological_target": "T1, 5HT2A receptor (Homo sapiens, UniProt P28223)", "T1 construct": "ketanserin (40 mg orally) 1 hour prior to the oral administration of LSD; host or cells: human subjects (in vivo, endogenous receptor)", "T1 sequence (P28223 whole entry)": "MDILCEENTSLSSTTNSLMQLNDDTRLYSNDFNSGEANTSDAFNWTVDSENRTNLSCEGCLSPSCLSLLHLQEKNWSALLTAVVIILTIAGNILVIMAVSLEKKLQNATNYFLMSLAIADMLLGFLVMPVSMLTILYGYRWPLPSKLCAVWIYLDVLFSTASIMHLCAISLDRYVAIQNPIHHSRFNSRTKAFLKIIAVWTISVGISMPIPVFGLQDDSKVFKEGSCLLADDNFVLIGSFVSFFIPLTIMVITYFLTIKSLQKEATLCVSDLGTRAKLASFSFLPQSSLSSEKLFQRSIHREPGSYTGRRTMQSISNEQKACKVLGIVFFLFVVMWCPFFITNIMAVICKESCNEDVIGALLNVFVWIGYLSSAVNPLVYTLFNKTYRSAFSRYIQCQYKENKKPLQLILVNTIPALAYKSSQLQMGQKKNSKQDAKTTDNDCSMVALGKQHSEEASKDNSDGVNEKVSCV", "details": "cited from earlier work"}, "[6]": {"details": "ketanserin 40 mg before 200 μg LSD, reduced to the level of 25 μg LSD"}, "[7]": {"details": "100 μg LSD + ketanserin 40 mg 1 hour after"}, "[8]": {"details": "ketanserin 40 mg 1 hour after 100 μg LSD"}}, "note": "Read-outs that look alike come from different tables or passages of the source."}
{"molecule": "CCN(CC)C(=O)[C@@H]1C=C2c3cccc4[nH]cc(c34)C[C@H]2N(C)C1", "note": "[LSD, Lysergic acid diethylamide]", "values": [{"measurement": "total 3D-OAV score", "setting": "healthy subjects [1]; 100 μg LSD + placebo", "value": 34, "unit": "%"}, {"measurement": "duration of action of LSD", "setting": "healthy subjects [1]; 100 μg LSD + placebo 1 hour after", "value": 10, "unit": "h"}, {"measurement": "total of reported complaints on the LC list (mean±SEM)", "setting": "healthy subjects [2]; 100 μg LSD + placebo", "value": "7±3.6"}, {"measurement": "duration of subjective effects (mean±SD)", "setting": "humans; 100 μg LSD, Holze et al., 2019, range: 5.3-12.8 hour", "value": "8.5 ± 2.0", "unit": "h"}, {"measurement": "duration of LSD effects", "setting": "humans; 100 μg dose, Dolder et al., 2017, range: 5-14 hours", "value": "8.2 ± 2.1", "unit": "h"}, {"measurement": "duration of LSD effects", "setting": "humans; 200 μg dose, Dolder et al., 2017, range: 7-19.5 hours", "value": "11.6 ± 1.7", "unit": "h"}]}
{"molecule": "O=C(c1ccc(F)cc1)C1CCN(CCn2c(=O)[nH]c3ccccc3c2=O)CC1", "note": "[ketanserin]", "values": [{"measurement": "LSD response on the AMRS", "setting": "healthy subjects [3]; ketanserin 40 mg 1 hour before 200 μg LSD", "value": "significantly prevented anxiety, introversion and emotional excitation"}, {"measurement": "overall subjective response to high-dose LSD", "setting": "healthy subjects [3]; ketanserin 40 mg 1 hour before 200 μg LSD, most P<0.001", "value": "reduced the subjective response to high-dose LSD approximately to the level of the 25 μg LSD dose"}, {"measurement": "subjective effects on the 5D-ASC Scale", "setting": "healthy subjects [3]; [6]", "value": "significantly and markedly reduced"}, {"measurement": "subjective effects on the MEQ and subscales 'Nadir' and 'Aesthetic experience' (SOCQ)", "setting": "healthy subjects [3]; [6]", "value": "significantly and markedly reduced"}, {"measurement": "acute adverse effects of 200 μg LSD (List of Complaints)", "setting": "healthy subjects [4]", "value": "significantly prevented"}, {"measurement": "LSD response on blood pressure", "setting": "healthy subjects [4]; 16 subjects", "value": "transiently reduced the LSD response on blood pressure only up to 6 hours"}, {"measurement": "LSD-induced heart rate response", "setting": "healthy subjects [4]; 16 subjects", "value": "significantly prevented"}, {"measurement": "effect on the PK of 200 μg LSD", "setting": "[5]", "value": "only minimally altered"}, {"measurement": "total 3D-OAV score", "setting": "healthy subjects [1]; [7]", "value": 24, "unit": "%"}, {"measurement": "duration of action of LSD", "setting": "healthy subjects [1]; [7]", "value": 4, "unit": "h"}, {"measurement": "set-in of the ketanserin effect on the subjective response to LSD, time after ketanserin administration", "setting": "healthy subjects [1]; [8]", "value": 1, "unit": "h"}, {"measurement": "time to blockade of the LSD-typical effects", "setting": "healthy subjects [1]; [8]", "value": "within two hours"}, {"measurement": "typical mind altering effects of LSD on VAS (any drug effect, good drug effect, visual, auditory, synaesthetic, sense of time, ego-dissolution)", "setting": "healthy subjects [1]; [8]", "value": "very effectively reduced"}, {"measurement": "reduction of the duration of action of LSD", "setting": "healthy subjects [1]; ketanserin 40 mg 1 hour after 100 μg LSD vs placebo", "value": "approximately 60%"}, {"measurement": "recurrence of the LSD effect", "setting": "healthy subjects [1]; ketanserin 40 mg 1 hour after 100 μg LSD, 12 hours observation", "value": "no recurrence of the LSD effect"}, {"measurement": "nausea induced by LSD (VAS)", "setting": "healthy subjects [1]; ketanserin 40 mg 1 hour after 100 μg LSD, more data needed", "value": "tended to reduce nausea"}, {"measurement": "acute subjective psychedelic response to LSD", "setting": "healthy subjects [1]; ketanserin 40 mg 1 hour after LSD base 100 μg", "value": "markedly shortened and also attenuated"}, {"measurement": "feelings of tiredness (VAS)", "setting": "healthy subjects [1]; ketanserin 40 mg added to 100 μg LSD compared with placebo", "value": "increased feelings of tiredness"}, {"measurement": "subjective feelings of stimulation (VAS)", "setting": "healthy subjects [1]; ketanserin 40 mg after 100 μg LSD compared with LSD alone", "value": "increased subjective feelings of stimulation"}, {"measurement": "subjective effects of LSD on the 5D-ASC Scale", "setting": "healthy subjects [1]; ketanserin 40 mg after 100 μg LSD in comparison with placebo", "value": "reduced the subjective effects of LSD"}, {"measurement": "reduction of the total 3D-OAV score", "setting": "healthy subjects [1]; ketanserin 40 mg after 100 μg LSD vs placebo", "value": "approximately 30%"}, {"measurement": "total of reported complaints on the LC list (mean±SEM)", "setting": "healthy subjects [2]; 100 μg LSD + ketanserin 40 mg", "value": "8.3±4"}, {"measurement": "cardiovascular effects of LSD (blood pressure, heart rate, body temperature)", "setting": "healthy subjects [2]; ketanserin 40 mg 1 hour after 100 μg LSD compared with placebo", "value": "no relevant effects on the cardiovascular effects of LSD"}, {"measurement": "diastolic blood pressure", "setting": "healthy subjects [2]; ketanserin 40 mg 1 hour after 100 μg LSD, needing further study", "value": "transient decrease in diastolic blood pressure"}, {"measurement": "effect on the LSD experience", "setting": "5HT2A receptor; ketanserin 40 mg orally 1 hour prior to LSD 200 μg, Liechti", "value": "similarly prevented the LSD experience"}, {"measurement": "effect on the LSD experience", "setting": "5HT2A receptor; ketanserin 40 mg orally 1 hour prior to oral LSD 70-100 μg, Preller et al., 2017", "value": "prevent the LSD experience almost completely"}]}
